Results as given in US6796312B2, “Process and apparatus for the removal of toxic components of tobacco smoke and the standardization of the health hazards related to those components” (priority 2001, dated 2004).
Values joined by “and” are separate entries in the source; they are usually repeats but may differ in a detail not shown here. Equal values may be shown once. Read-outs that look alike come from different tables or passages of the source.

What was measured:
myeloperoxidase = target: T1, myeloperoxidase (Homo sapiens, UniProt P05164); assay: NADH2-NDGA-myeloperoxidase spectrophotometric assay of sputum / oral fluid-cell harvest supernatant extracts; type: biochemical
T1 construct: Homogenates were centrifuged at 1,300×g for ten (10) minutes and the supernatant extracts were kept during the course of analysis; from tissue; host or cells: human sputum / oral fluid-cell harvest (neutrophil-rich) homogenate supernatants
T1 sequence (P05164 49-745): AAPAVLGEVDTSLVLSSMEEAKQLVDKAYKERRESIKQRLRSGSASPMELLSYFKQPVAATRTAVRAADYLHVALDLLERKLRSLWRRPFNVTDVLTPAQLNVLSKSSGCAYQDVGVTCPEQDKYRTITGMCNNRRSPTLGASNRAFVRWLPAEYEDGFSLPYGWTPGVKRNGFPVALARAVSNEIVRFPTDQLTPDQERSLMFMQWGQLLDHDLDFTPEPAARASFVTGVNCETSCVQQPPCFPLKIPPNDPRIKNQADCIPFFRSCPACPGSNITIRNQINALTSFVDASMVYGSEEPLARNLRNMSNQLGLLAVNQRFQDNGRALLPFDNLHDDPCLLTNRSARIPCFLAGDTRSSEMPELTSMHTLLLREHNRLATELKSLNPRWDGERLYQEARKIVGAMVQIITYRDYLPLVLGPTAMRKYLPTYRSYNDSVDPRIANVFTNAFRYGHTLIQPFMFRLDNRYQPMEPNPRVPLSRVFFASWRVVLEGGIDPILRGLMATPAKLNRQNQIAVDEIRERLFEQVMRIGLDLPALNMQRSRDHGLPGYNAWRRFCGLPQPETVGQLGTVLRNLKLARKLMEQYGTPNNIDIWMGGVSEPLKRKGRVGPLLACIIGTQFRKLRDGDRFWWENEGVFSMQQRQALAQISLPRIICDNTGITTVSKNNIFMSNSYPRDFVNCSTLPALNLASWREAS
Method: Aliquots of fresh human oral fluid-cell harvests as exemplified above or fresh human sputum collected by the donors over a twenty-four (24) hour period were disrupted employing either Ten Broeck glass homogenizers or the Virtis homogenizer. Homogenates were centrifuged at 1,300×g for ten (10) minutes and the supernatant extracts were kept during the course of analysis at zero degrees centigrade (0° C.). Other reactants were incubated at thirty-five degrees centigrade (35° C.). Reduced nicotinamide-adenine dinucleotide oxidase and norhydroguaiaretic acid-myeloperoxidase activities were followed at 340 mμ or (nm) employing the Beckman Model DU Spectrophotometer temperature regulated at thirty-five degrees centigrade (35° C.). All specific reactions were run as duplicate assays.
Although this oxidation was very small under the conditions of experiment, an interaction correction factor was determined and applied to all reduced nicotinamide-adenine dinucleotide-nordihydroguaiaretic acid-mycloperoxidase assay reactions.
The velocity constants for the myeloperoxidase reactions behaved and were computed in accord with zero order reaction kinetics. […] In most instances, the activities followed first order reaction kinetics for a short interval and then ceased abruptly. The latter may be due to the presence or accumulation of variable concentrations of an unidentified inhibitor or inhibitors in the supernatants. Since in all cases the oxidase activities were very slow relative to the myeloperoxidase activities, the difference in optical density over the course of the reactions (up to ten (10) minutes) for the oxidase system were computed in the same manner as the data for the rapid myeloperoxidase system. Thus, all velocity constants were expressed in μ Moles of reduced nicotinamide-adenine dinucleotide oxidized per minute per ml. of oral fluid-cell harvest or sputum. The small oxidase activities were applied as a correction factor in the computation of all myeloperoxidase velocity constants.
The pH optimum of the myeloperoxidase system was determined. When fresh nordihydroguaiaretic acid solutions were prepared and interaction rates with reduced nicotinamide-adenine dinucleotide were subtracted as controls from oral lavage and sputum supernatant myeloperoxidase activities, the net velocity constants were zero (0). On the other hand, five (5) hour old nordihydroguaiaretic acid solutions yielded optimal activities at approximately pH 7.4. Subsequent experiments uniformly were carried out at pH 7.0 using five (5) hour old solutions to minimize the rates of the auto oxidation of nordihydroguaiaretic acid and oxidation of reduced nicotinamide-adenine dinucleotide by nordihydroguaiaretic acid when employing alkaline pH's.

[1] = system: succinic oxidase and reduced nicotinamide-adenine dinucleotide oxidase; assay: Respiratory chain of mouse heart homogenates; type: biochemical; settings: under certain conditions, Eichel unpublished
[2] = target: T2, yeast alcohol dehydrogenase (Saccharomyces cerevisiae, UniProt P00330); settings: 2.7×10^−4 Molar (80 ppm); cited from earlier work
T2 sequence (P00330 1-348): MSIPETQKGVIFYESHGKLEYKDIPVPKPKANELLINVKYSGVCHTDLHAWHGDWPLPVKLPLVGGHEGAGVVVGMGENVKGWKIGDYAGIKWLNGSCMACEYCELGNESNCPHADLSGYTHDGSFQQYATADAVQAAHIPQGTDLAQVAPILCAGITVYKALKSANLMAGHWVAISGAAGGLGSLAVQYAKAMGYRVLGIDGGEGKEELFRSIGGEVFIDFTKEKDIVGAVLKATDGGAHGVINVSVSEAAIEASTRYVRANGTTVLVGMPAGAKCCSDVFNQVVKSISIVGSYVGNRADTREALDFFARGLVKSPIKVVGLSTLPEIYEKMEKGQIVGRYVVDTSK

[3] = target: squash ascorbic acid oxidase (Cucurbita pepo var. melopepo, UniProt P37064); settings: cited from earlier work
squash ascorbic acid oxidase, sequence (P37064 whole entry): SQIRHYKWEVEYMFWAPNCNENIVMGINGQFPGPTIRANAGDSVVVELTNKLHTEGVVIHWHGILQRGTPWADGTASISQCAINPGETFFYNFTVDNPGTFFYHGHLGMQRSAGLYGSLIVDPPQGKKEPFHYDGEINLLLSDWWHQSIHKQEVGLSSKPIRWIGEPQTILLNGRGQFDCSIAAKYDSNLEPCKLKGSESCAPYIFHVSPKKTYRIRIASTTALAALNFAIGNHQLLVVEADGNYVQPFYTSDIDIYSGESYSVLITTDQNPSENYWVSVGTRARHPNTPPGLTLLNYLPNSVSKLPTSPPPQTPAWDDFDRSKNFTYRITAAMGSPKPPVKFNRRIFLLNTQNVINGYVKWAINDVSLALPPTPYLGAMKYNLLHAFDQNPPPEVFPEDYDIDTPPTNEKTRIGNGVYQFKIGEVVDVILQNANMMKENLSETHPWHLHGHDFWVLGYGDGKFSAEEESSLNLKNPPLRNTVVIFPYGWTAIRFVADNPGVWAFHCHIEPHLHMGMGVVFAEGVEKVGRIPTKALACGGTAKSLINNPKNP

rat liver cyclophorase = settings: 2.7×10^−3 Molar (160 ppm); listed as nordihydroguaiaretic acid; cited from earlier work
[4] = target: T3, pig heart D-amino acid oxidase (Sus scrofa, UniProt P00371); settings: 2.7×10^−3 Molar (160 ppm); cited from earlier work
T3 construct: host or cells: pig heart (so in the source)
T3 sequence (P00371 whole entry): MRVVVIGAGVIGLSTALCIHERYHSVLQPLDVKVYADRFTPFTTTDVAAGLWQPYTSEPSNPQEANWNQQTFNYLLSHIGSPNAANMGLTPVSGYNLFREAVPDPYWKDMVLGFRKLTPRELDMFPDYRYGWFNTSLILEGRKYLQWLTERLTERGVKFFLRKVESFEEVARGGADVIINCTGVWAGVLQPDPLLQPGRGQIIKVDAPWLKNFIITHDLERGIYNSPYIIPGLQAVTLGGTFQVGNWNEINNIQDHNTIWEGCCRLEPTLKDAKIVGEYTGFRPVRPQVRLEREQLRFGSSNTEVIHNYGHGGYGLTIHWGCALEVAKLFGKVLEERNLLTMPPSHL

jack bean urease = jack bean urease (Canavalia ensiformis, UniProt P07374); settings: cited from earlier work
jack bean urease, sequence (P07374 whole entry, looked up): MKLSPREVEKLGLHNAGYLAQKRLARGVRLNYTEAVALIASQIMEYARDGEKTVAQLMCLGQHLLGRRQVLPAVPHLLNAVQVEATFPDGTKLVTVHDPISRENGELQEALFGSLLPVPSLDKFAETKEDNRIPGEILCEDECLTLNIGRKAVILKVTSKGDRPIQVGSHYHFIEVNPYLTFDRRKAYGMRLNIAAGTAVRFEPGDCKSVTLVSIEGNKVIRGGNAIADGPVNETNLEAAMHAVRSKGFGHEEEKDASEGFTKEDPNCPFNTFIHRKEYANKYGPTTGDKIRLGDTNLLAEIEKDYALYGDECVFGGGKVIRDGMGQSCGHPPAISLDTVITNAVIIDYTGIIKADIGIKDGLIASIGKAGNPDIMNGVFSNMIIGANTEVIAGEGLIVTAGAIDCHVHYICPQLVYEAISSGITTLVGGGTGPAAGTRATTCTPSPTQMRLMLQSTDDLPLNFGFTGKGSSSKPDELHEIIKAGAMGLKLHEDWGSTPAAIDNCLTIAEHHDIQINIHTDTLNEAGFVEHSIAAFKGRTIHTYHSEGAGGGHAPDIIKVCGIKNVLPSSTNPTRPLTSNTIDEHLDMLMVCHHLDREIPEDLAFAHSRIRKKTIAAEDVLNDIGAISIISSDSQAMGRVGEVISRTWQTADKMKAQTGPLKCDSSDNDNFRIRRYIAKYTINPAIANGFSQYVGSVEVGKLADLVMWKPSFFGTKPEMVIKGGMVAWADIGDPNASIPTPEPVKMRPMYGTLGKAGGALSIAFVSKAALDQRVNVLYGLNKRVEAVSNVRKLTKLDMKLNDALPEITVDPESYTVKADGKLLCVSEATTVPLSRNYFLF

plant lipoxidase = settings: cited from earlier work
human whole saliva = settings: low concentrations; cited from earlier work
[5] = system: Ehrlich carcinoma, Li210 mouse leukemia and other cancer cells; settings: in vivo and in vitro; cited from earlier work
[6] = cited from earlier work

## CC(Cc1ccc(O)c(O)c1)C(C)Cc1ccc(O)c(O)c1 (stereo not drawn) [NDGA, beta, gamma-dimethyl-alpha, ortho-bis (3,4 dihydroxiphenyl) butane]
myeloperoxidase; NDGA solution aged 0 minutes
  NADH2-NDGA-MPO velocity constant: 0.00 μ Moles NADH2 oxidized per minute per ml. of sputum supernatant
myeloperoxidase; NDGA solution aged 60 minutes
  NADH2-NDGA-MPO velocity constant: 8.97 μ Moles NADH2 oxidized per minute per ml. of sputum supernatant
myeloperoxidase; NDGA solution aged 120 minutes
  NADH2-NDGA-MPO velocity constant: 14.43 μ Moles NADH2 oxidized per minute per ml. of sputum supernatant
myeloperoxidase; NDGA solution aged 180 minutes
  NADH2-NDGA-MPO velocity constant: 27.65 μ Moles NADH2 oxidized per minute per ml. of sputum supernatant
myeloperoxidase; NDGA solution aged 240 minutes
  NADH2-NDGA-MPO velocity constant: 28.89 μ Moles NADH2 oxidized per minute per ml. of sputum supernatant
myeloperoxidase; NDGA solution aged 337 minutes
  NADH2-NDGA-MPO velocity constant: 32.40 μ Moles NADH2 oxidized per minute per ml. of sputum supernatant
myeloperoxidase; NDGA solution aged 397 minutes
  NADH2-NDGA-MPO velocity constant: 41.39 μ Moles NADH2 oxidized per minute per ml. of sputum supernatant
myeloperoxidase; NDGA solution aged 440 minutes
  NADH2-NDGA-MPO velocity constant: 44.21 μ Moles NADH2 oxidized per minute per ml. of sputum supernatant
myeloperoxidase; NDGA solution aged 485 minutes
  NADH2-NDGA-MPO velocity constant: 46.85 μ Moles NADH2 oxidized per minute per ml. of sputum supernatant
[1]
  inhibition of the respiratory chain (succinic oxidase, reduced nicotinamide-adenine dinucleotide oxidase): effective inhibitor
[2]
  inhibition of yeast alcohol dehydrogenase: 71%
[3]
  inhibition of squash ascorbic acid oxidase: 100%
Rat liver cyclophorase
  inhibition of rat liver cyclophorase: 93% and 70%
[4]
  inhibition of pig heart D-amino acid oxidase: 99%
Jack bean urease
  inhibition of jack bean urease: 99%
Plant lipoxidase
  inhibition of plant lipoxidase-catalyzed oxidation and auto-oxidation of linoleate: well-known inhibitor
Human whole saliva
  inhibition of aerobic and anaerobic glycolysis: markedly inhibited
  inhibition of endogenous and glucose dependent respiration: nearly as effectively inhibited
[5]
  inhibition of the same metabolic activities in cancer cells: similarly inhibited
[6]; dilute hydrochloric acid
  solubility: insoluble
[6]; ethanol, methanol, ether, acetone, glycerol, propylene glycol, dilute alkali
  solubility: soluble
[6]; hot water and chloroform
  solubility: slightly soluble
